# Experiments:
# [1] = test system: HTLV III WMJ; test: Fusion inhibition (syncytia) assay, Sup-T1 cells with WMJ infected H9 cells; format: cell-based, HIV-1; set-up: key to Degree of Syncytia Formation: 4=Full; 0=None; S=Small; M=Medium; L=Large; details: for Degree of Syncytia Formation: degree and size of syncytia
# Description: The fusion inhibition (syncytia) assay was performed according to published procedures (Dalgleish et al., Nature 312:763, (1984) and Sodroski et al., Nature 322: 470, (1986)). Sup-T1 cells are favored target cells for their rapid degree of cell fusion when co-cultured with HIV-1 producing cell lines. Cell culture is performed according to the method of Dalgleish et al. (Nature 312:763, (1984)). Sup-T1 cells are plated in 96 well plates (10⁵ cells/well in RPMI 1640 + 10% FCS) and incubated with or without dilutions of beta-cyclodextrin tetradecasulfate (β-CD-TDS or β-CD-14S) at 37°C. HTLV-III B (HIV-1) or WMJ infected H9 cells are then added 5x10⁴/well and the number of multinucleated giant cells per 16 X field counted with a Zeiss inverted field phase contrast microscope after 18 hours. Syncytia are easily identified and inhibition of syncytia by different dilutions of β-CD-TDS can be compared with to β-CD-TDS free preparations. It will be apparent to those skilled in the art, that the formation of syncytia between cells susceptible of infection by HIV-1 and cells expressing HIV-1 envelope glycoproteins represents the same molecular phenomena involved in infection by HIV-1, but is far less hazardous and may be employed to study the mechanisms of infection and the effects of modulating factors on HIB-1 intracellular infection mechanisms, without fear of exposure to the virus itself.
# For screening of different dilutions, 10-fold dilutions of a 150 micromolar solution of β-CD-TDS were prepared and directly added to syncytia assays as described above.
# For the assay of HIV-1 fusion, Supt T1 cells were used as target cells. They fuse rapidly when cocultured with HIV-1 (H9/IIIb) producing cell lines. For the assay of HIV-2 mediated cell fusion, H9 cells were used as target cells. They fuse rapidly when cocultured with HIV-2 (CEMROD-2) producing cell lines. HIV infected cells were plated in 96 well plates (10⁴ cells/well in RPMI 1640 + 10% FCS) and incubated with or without dilution of compounds for 30 minutes at 37°C. Target cells are then added 5 x 10⁵/well and the number of syncytia are qualitatively determined after the incubation periods described in the text.
# In a series of preliminary experiments, a syncytia assay induced by HIV-1 fusion of Sup-T1 cells was performed as described in Section 6.1.1, supra.
# [2] = Water solubility at 0°C; format: physicochemical
# Description: The cyclic oligosaccharide derivatives useful in the present invention are highly hydrophilic and therefore very water soluble. A highly hydrophilic character probably is important to allow interaction with cellular surfaces. The hydrophilic activity is likely roughly indicated by the affinity to water, as measured by water solubility. It is important to measure the same at 0°C since at higher temperatures the most suitable derivative have solubilities so high that meaningful measurements are difficult.
# [3] = test system: HTLV-IIIb cell free virus; test: Reverse transcriptase assay of HIV infectivity, cell free virus on target cells, 10 day incubation; format: cell-based, HIV-1
# Description: Figure 2 illustrates the effects of cyclodextrin and cyclodextrin derivatives on HIV infectivity as determined by reverse transcriptase activity. Samples assayed are (A) untreated control cells, (B) β-cyclodextrin unsubstituted ring, (C) partially sulfated β-cyclodextrin ring, (D) propylated β-cyclodextrin ring, (E) sulfated β-cyclodextrin ring, and (F) methylated β-cyclodextrin ring. Numbers indicate 1/2 dilutions of test compounds with 1 = 2.5 mM concentration of compound.
# Virus infected cells were pelleted by centrifugation and 50 µl of culture suprenatant was collected from each well for assay. Culture supernatant (25 µl) was plated in 96 well round bottomed plates and 50 µl of transcriptase cocktail was added to each well. Cocktail is 50 mM Tris-HC1, pH 8.0, 20 mM DTT, 0.6 mM MnC1₂, 60 mM NaC1, 0.05% NP-40, 5 µg/ml dt (oligodeoxythymidilic acid), 10 µg/ml poly A (polyriboadenylic acid), 10 µM dTTP, 1 Ci/mm ³²P dTTP. Plates were then incubated for 60 minutes at 37°C. After incubation samples were spotted onto Whatman DEAE-81 paper, washed and analyzed by counting or direct autoradiography.
# The ability of cyclodextrins to inhibit HIV infection was assessed in vitro utilizing reverse transcriptase assays as described Section 6.1.2, supra. HTLV-IIIb cell free virus stocks were inoculated onto target cells in the presence or absence of the synthetic compounds.
# [4] = test system: HIV-1; test: Viral RNA analysis by dot blot; format: cell-based; details: 1 mM
# Description: Virus particles were incubated with target cells in the presence or absence of […] of β-CD-14S. At 72 hours post infection, the cells were washed and dot blot assays were performed to determine the presence or absence of viral RNA production. In (A), target cells were infected in the presence of sulfated β-cyclodextrin (lane A), in the absence of cyclodextrins (lane B), or in the presence of unsubstituted β-cyclodextrin (lane C). 1/2 dilutions of cells are from left to right starting with 10⁶ cell/well utilized. In (B), virally infected cells (+) or uninfected cells (-) were assayed for their ability to produce viral RNA by dot blot analysis. CD = infected cells incubated with 1 mM of β-CD-14S. 1/2 dilutions of cells are from top to bottom starting with 10⁶ cell/well.
# Virus treated cells were grown in tissue culture and harvested for assay at 72 hrs. post-infection. The cell concentrations were then adjusted to 1 x 10⁶ cells/m1 with phosphate buffered saline and spotted directly onto prewetted gene screen utilizing a dot blot apparatus. The filter was then fixed in 3% NaC1, 10 mM NaH₂PO₄, (pH 7.2) containing 1% gluteraldehyde at 4°C for 1 hr. The fixed blot was then rinsed three times with proteolytic buffer (50mM EDTA, 0.1 M Tris-HC1 (pH 8.0), 20 µg/ml proteinase K) for 30 minutes at 37°C. The filter was air dried until being probed. A Sall-Xho1 probe derived from the pIIIenv1 plasmid (a generous gift of Dr. J. Sodrofsky) and encoding the envelope region of the HXB2, HIV-1 virus was labeled by the random primer method using standard technology and hybridized to the filter as previously described (Weiner et al., 1986, Cell Immunol. 100:197).
# To determine if the cyclodextrins were interfering with steps relevant to viral replication, the ability of these compounds to inhibit viral nucleic acid synthesis was determined. Virus particles were incubated with target cells in the presence or absence of 1 mM of β-CD-14S. At 72 hours post-infection, the cells were washed and dot blot assays were performed to determine the presence or absence of viral RNA production. […]
substance,measurement,setting,value
beta-cyclodextrin tetradecasulfate [Beta-CD-14S],Degree of Syncytia Formation,[1]; 0.15 micromolar β-CD-TDS,4 L
same,inhibition of syncytia formation,"[1]; 0.15 micromolar, text summary of Table 1 (both strains)",no inhibition of syncytia formation was observed
same,Degree of Syncytia Formation,[1]; 1.50 micromolar β-CD-TDS,3 M
same,Degree of Syncytia Formation,[1]; 15.0 micromolar β-CD-TDS,1S
same,Degree of Syncytia Formation,[1]; 150 micromolar β-CD-TDS,0
same,Degree of Syncytia Formation,[1]; 1500 micromolar β-CD-TDS,0
same,inhibition of syncytia,"[1]; between 1.5 micromolar and 1500 micromolar, text summary of Table 1 (both strains)",inhibition of syncytia was observed
same,Solubility 0°C,[2],42 g/100ml H₂O
same,inhibition of viral infectivity (reverse transcriptase activity),"[3]; 1/2 dilutions from 2.5 mM, result in words",extremely effective
same,concentrations at which some reverse transcriptase activity was apparent,[3]; dilution 4,≤ 320 µM
same,concentrations at which reverse transcriptase activity was dramatically inhibited,[3]; dilution 6,≥ 80 µM
same,ability of infected cells to produce viral RNA,[4]; already infected cells incubated with compound,not inhibited in their ability to produce viral RNA
same,HIV-1 specific RNA,"[4]; target cells infected in the presence of compound, 72 hours post-infection",little or no HIV-1 specific RNA was detected
